Assay type in all cases: protein-complex assay
The target in assay [1] is Integrin alpha-V/beta-3 (Homo sapiens, UniProt P05106+P06756). In words: In vitro inhibitory activity against alpha v beta 3 vitronectin protein interaction was measured by ELISA. In general terms: An ELISA detects its analyte on a solid surface through an enzyme-linked reagent.
The target in assay [2] is Integrin alpha-IIb/beta-3 (Homo sapiens, UniProt P05106+P08514). The assay can be described thus: In vitro inhibitory activity against alpha IIb beta IIIa fibrinogen protein interaction was measured by ELISA.
Integrin alpha-IIb/beta-3, sequence (P05106 27-788 limits assumed): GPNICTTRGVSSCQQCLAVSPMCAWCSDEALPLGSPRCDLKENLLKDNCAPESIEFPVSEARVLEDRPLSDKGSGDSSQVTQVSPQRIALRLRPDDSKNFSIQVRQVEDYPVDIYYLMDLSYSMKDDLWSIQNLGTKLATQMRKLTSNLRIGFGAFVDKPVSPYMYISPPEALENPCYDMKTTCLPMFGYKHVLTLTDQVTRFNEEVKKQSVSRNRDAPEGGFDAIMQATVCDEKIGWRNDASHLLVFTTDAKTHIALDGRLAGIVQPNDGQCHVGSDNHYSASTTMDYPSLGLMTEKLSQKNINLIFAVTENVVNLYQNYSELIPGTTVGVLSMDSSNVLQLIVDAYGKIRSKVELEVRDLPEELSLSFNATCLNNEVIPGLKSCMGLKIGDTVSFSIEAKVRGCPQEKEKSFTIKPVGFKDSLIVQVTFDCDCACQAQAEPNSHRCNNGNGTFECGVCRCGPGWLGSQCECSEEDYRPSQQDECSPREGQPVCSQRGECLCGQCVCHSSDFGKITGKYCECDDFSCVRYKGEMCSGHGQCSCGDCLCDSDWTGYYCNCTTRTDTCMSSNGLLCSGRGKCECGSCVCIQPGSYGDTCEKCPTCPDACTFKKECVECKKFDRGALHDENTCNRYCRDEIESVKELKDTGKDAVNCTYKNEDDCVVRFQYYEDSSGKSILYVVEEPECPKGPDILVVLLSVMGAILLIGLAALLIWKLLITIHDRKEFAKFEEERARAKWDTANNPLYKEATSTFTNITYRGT
Integrin alpha-IIb/beta-3, sequence (P08514 32-887 limits assumed): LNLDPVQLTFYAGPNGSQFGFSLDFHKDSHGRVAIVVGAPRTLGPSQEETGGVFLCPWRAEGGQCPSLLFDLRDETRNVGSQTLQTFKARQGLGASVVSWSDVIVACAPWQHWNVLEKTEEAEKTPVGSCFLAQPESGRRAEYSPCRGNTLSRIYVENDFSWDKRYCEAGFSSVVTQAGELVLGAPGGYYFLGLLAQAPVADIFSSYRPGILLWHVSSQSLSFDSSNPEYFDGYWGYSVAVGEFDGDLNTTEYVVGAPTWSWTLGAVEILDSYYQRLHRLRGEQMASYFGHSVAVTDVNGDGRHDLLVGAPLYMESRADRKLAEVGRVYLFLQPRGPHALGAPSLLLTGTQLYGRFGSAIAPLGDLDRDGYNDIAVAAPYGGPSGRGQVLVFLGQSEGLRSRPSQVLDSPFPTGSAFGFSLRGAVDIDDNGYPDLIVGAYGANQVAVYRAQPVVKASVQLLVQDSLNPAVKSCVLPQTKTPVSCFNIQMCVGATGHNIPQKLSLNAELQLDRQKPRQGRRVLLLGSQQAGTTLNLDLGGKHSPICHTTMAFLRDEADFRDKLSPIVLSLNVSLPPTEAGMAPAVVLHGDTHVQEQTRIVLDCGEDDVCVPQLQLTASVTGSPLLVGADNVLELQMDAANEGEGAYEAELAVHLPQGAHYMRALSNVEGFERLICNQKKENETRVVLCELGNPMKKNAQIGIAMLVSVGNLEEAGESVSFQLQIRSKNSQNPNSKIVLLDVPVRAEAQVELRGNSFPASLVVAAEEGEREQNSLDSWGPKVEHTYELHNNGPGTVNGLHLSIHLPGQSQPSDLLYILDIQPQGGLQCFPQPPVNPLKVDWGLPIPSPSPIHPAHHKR
Integrin alpha-IIb/beta-3, sequence (P08514 891-1039 limits assumed): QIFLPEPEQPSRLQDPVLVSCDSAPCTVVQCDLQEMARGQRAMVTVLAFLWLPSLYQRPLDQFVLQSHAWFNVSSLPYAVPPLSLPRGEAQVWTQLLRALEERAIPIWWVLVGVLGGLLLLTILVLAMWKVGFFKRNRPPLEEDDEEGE
Assay [3] concerns the target Integrin alpha-V/beta-5 (Homo sapiens, UniProt P06756+P18084). In words: In vitro inhibitory activity against alpha v beta 5 vitronectin protein interaction was measured by ELISA.
In assay [4] the target is Integrin alpha-5/beta-1 (Homo sapiens, UniProt P05556+P08648). In words: In vitro inhibitory activity against alpha 5 beta 1 fibronectin protein interaction was measured by ELISA.
Integrin alpha-5/beta-1, sequence (P05556 21-798 limits assumed): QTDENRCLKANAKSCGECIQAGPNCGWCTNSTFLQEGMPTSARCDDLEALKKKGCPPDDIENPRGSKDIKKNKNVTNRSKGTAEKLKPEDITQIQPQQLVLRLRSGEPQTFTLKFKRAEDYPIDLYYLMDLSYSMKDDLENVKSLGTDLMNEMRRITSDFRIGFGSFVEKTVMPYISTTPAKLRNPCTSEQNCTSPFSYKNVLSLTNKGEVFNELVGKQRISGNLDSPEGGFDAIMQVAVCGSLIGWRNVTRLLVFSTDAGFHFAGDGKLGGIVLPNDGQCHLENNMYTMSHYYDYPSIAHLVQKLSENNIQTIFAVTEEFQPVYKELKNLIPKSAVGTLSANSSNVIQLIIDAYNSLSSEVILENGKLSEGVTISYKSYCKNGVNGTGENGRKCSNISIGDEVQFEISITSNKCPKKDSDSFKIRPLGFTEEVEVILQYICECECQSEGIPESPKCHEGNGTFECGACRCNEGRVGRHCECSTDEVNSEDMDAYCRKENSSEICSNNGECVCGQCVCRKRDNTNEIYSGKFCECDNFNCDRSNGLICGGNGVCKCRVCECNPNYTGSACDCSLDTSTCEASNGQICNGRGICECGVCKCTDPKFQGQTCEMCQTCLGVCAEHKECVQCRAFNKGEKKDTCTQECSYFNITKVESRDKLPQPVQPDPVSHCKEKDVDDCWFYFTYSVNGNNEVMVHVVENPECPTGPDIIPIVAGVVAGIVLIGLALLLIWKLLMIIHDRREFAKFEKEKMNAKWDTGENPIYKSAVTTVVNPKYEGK
Integrin alpha-5/beta-1, sequence (P08648 42-894 limits assumed): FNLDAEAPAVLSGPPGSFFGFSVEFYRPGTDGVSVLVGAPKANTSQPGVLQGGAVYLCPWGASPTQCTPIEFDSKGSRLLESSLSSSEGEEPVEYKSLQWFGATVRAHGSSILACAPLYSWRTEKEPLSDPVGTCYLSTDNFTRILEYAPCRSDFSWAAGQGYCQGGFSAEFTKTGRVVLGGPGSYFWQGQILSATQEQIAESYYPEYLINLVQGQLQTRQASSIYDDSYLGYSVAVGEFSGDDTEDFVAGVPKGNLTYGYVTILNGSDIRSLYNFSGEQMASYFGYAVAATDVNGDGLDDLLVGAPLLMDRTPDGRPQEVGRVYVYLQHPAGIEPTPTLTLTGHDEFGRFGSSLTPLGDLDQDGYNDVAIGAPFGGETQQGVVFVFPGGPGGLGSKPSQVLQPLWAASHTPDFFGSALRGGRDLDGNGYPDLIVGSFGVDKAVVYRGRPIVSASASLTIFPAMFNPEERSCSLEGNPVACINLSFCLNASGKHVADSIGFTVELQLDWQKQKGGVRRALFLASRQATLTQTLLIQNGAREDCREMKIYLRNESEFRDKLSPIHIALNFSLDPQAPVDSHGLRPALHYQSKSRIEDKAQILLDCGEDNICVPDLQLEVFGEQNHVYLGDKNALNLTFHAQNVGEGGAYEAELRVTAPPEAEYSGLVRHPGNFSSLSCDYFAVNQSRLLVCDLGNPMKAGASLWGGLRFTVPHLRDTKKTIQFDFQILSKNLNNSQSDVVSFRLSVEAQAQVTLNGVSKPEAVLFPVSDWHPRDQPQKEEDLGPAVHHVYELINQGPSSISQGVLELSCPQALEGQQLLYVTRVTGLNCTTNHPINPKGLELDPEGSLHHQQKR
Integrin alpha-5/beta-1, sequence (P08648 895-1049 limits assumed): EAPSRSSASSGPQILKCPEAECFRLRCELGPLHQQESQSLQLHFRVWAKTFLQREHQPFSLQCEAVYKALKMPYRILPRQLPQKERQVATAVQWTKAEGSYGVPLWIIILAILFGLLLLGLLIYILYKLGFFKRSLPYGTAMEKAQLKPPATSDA

Integrin alpha-V/beta-3, sequence (P05106 27-788 limits assumed): as the sequence (P05106 27-788 limits assumed) above
Integrin alpha-V/beta-3, sequence (P06756 31-889 limits assumed): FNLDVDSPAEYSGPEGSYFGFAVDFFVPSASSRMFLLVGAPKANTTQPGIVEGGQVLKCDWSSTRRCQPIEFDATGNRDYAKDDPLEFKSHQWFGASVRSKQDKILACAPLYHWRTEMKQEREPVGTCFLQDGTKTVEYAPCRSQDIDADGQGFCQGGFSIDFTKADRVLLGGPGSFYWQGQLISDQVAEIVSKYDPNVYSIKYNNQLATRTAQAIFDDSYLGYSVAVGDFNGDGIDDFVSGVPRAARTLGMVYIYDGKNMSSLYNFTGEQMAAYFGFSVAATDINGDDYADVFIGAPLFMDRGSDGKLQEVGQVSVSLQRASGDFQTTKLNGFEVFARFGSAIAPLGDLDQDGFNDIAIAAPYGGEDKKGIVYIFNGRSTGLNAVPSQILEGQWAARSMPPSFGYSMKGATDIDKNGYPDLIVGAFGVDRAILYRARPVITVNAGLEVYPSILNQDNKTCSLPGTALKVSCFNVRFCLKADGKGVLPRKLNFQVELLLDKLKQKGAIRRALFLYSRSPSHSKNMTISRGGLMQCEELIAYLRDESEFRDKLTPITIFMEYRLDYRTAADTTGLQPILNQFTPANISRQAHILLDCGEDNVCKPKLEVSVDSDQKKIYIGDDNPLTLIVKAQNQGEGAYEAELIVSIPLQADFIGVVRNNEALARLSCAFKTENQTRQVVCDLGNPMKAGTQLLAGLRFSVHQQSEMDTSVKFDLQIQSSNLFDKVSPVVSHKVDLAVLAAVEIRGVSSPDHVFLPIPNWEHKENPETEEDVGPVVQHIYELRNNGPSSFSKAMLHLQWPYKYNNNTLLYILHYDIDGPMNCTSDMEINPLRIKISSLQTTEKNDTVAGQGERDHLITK
Integrin alpha-V/beta-3, sequence (P06756 891-1048 limits assumed): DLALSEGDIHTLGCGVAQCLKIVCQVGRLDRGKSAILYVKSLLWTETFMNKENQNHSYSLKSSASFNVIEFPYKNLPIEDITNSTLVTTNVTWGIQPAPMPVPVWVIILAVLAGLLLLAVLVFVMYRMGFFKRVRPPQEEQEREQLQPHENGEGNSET

`CCCCS(=O)(=O)NC(CNC(=O)c1cc2cc(OCCON=C(N)N)ccc2[nH]1)C(=O)O` (stereo not given): the IC50 in assay [1] amounted to 10.5 nM.
Same read-out and setting: the same measure for `N=C(N)NOCCOc1ccc2[nH]c(C(=O)NCC(NCc3ccccc3)C(=O)O)cc2c1` (stereo not given): greater than 20000 nM.
On the same count and under the same terms, then `NC(N)=NOCCOc1ccc2[nH]c(C(=O)NCC(N)C(=O)O)cc2c1` (stereo not given), with greater than 20000 nM; and `Cc1ccc(S(=O)(=O)NC(CNC(=O)c2cc3cc(OCCO/N=C(\N)NC(=O)OC(C)(C)C)ccc3[nH]2)C(=O)O)cc1` (stereo not given), with 130 nM; and `N=C(N)NOCCOc1ccc2[nH]c(C(=O)NCC(NC(=O)c3ccccc3)C(=O)O)cc2c1` (stereo not given), with 310 nM.
`Cc1ccc(S(=O)(=O)NC(CNC(=O)c2cc3cc(OCCON=C(N)N)ccc3[nH]2)C(=O)O)cc1` (stereo not given) yielded an IC50 in assay [1] of 9 nM.
In the case of `N=C(N)NOCCOc1ccc2[nH]c(C(=O)NCC(NS(=O)(=O)c3ccccc3)C(=O)O)cc2c1` (stereo not given), the IC50 in assay [2] worked out at 13 nM; in assay [1], 3.4 nM; in assay [3], 1000 nM.
In turn, `N=C(N)NOCCOc1ccc2[nH]c(C(=O)NCC(NC(=O)OCc3ccccc3)C(=O)O)cc2c1` (stereo not given) gave an IC50 in assay [1] of 7.2 nM.
Take `O=C(NCC(NS(=O)(=O)c1ccccc1)C(=O)O)c1cc2cc(OCCONC3=NCCN3)ccc2[nH]1` (stereo not given): the IC50 in assay [2] is 170 nM; in assay [4] it was greater than 20000 nM; in assay [1] it was 100 nM; in assay [3], greater than 20000 nM.
`CC1(C)C2CCC1(S(=O)(=O)NC(CNC(=O)c1cc3cc(OCCONC(=N)N)ccc3[nH]1)C(=O)O)CC2` (stereo not given): the IC50 in assay [1] was found to be 0.4 nM.
Still for that read-out and setting: the same measure for `O=C(NCc1ccccc1)NOCCOc1ccc2[nH]c(C(=O)NCC(NC(=O)OCc3ccccc3)C(=O)O)cc2c1` (stereo not given): greater than 20000 nM.
Still for that read-out and setting: then `N=C(N)NOCCOc1ccc2[nH]c(C(=O)NC(CC(=O)O)c3cc(Cl)cc(Cl)c3)cc2c1` (stereo not given), with greater than 20 nM.
As to `N=C(N)NOCCOc1ccc2[nH]c(C(=O)NCC(NS(=O)(=O)c3cc(Cl)cc(Cl)c3)C(=O)O)cc2c1` (stereo not given), the values for the IC50 in assay [2], in assay [4] and in assay [1] were 25 nM, greater than 1000 nM and 6.1 nM, respectively.

Usually IC50 stands for the concentration that gives 50% inhibition. A low value points to inhibition by little substance.

The record behind these values is ChEMBL document CHEMBL1137098, “Design, synthesis, and biochemical evaluation of novel alpha V beta 3 integrin ligands” (Bioorg Med Chem Lett, 2004).
